Experimental data: DBAASP
Converted amounts (≈) assume the structure as drawn.

Legend:
Experiment in all cases: ≥ marks a high value that may be exact or a test limit, other limits are often not marked, values filed in µg/mL are converted to µM
Listeria grayi DSM 20601 = system: Listeria grayi DSM 20601
[1] = system: Staphylococcus epidermidis DSM 3269
[2] = system: Escherichia coli ATCC 25922
[3] = system: Klebsiella pneumoniae ATCC 700603
[4] = system: Staphylococcus aureus ATCC 29313
[5] = system: Salmonella enterica subsp. enterica serovar Typhimurium ATCC 14028
[6] = system: Acinetobacter baumannii AB3
[7] = system: Acinetobacter baumannii AB1
Pseudomonas aeruginosa 5 = system: Pseudomonas aeruginosa 5
[8] = system: Pseudomonas aeruginosa ATCC 27853
[9] = system: Acinetobacter baumannii ATCC 19606
[10] = system: Acinetobacter baumannii AB2
Pseudomonas aeruginosa 1 = system: Pseudomonas aeruginosa 1

CC[C@H](C)[C@H](NC(=O)CNC(=O)[C@H](CO)NC(=O)[C@@H](N)CS)C(=O)N[C@H](C(=O)N[C@@H](CCCCN)C(=O)N[C@@H](CCC(N)=O)C(=O)N[C@H](C(=O)N[C@@H](CS)C(=O)N[C@H](C(=O)N[C@@H](CS)C(=O)N[C@@H](Cc1ccc(O)cc1)C(=O)N[C@@H](CCCN=C(N)N)C(=O)N[C@@H](CCCCN)C(=O)O)[C@@H](C)O)[C@@H](C)O)[C@@H](C)CC [CSGIIKQTCTCYRK]
MIC (Listeria grayi DSM 20601): 30 µM (≈ 48.1 µg/mL) | MIC [1]: 30 µM (≈ 48.1 µg/mL)

CC[C@H](C)[C@H](NC(=O)[C@H](CCCCN)NC(=O)CNC(=O)[C@H](CCSC)NC(=O)[C@H](C)NC(=O)[C@H](Cc1cnc[nH]1)NC(=O)[C@H](C)NC(=O)[C@@H](NC(=O)[C@H](CC(C)C)NC(=O)[C@H](CCC(N)=O)NC(=O)[C@H](CCCCN)NC(=O)CNC(=O)[C@H](C)NC(=O)[C@H](CC(=O)O)NC(=O)[C@H](CCCCN)NC(=O)[C@@H](NC(=O)[C@@H](NC(=O)[C@H](CC(=O)O)NC(=O)[C@H](Cc1ccccc1)NC(=O)[C@@H](NC(=O)CN)C(C)C)[C@@H](C)CC)[C@@H](C)CC)C(C)C)C(=O)N[C@@H](C)C(=O)N[C@@H](CCC(=O)O)C(=O)N[C@@H](CCCCN)C(=O)N[C@H](C(N)=O)C(C)C [GVFDIIKDAGKQLVAHAMGKIAEKV]
MIC [2]: 303 µM (≈ 800 µg/mL) | MIC [3]: > 303 µM | MIC [4]: ≥ 303 µM | MIC [5]: > 303 µM

CC[C@H](C)[C@H](NC(=O)[C@H](CCCCN)NC(=O)[C@H](CCCCN)NC(=O)[C@H](Cc1ccc(O)cc1)NC(=O)[C@H](CCC(=O)O)NC(=O)[C@H](CCCN=C(N)N)NC(=O)[C@H](C)NC(=O)[C@@H](N)CC(C)C)C(=O)N[C@H](C(=O)N[C@@H](CCC(=O)O)C(=O)N[C@@H](CCCCN)C(=O)N[C@@H](CC(C)C)C(=O)N[C@@H](CCCCN)C(=O)N[C@@H](CCCN=C(N)N)C(=O)N[C@@H](Cc1c[nH]c2ccccc12)C(=O)N[C@@H](CC(C)C)C(=O)N[C@@H](CCCN=C(N)N)C(=O)N[C@@H](CCC(N)=O)C(=O)N[C@H](C(=O)N[C@@H](CC(C)C)C(=O)N[C@@H](CCCN=C(N)N)C(=O)N[C@H](C(=O)N[C@@H](CC(C)C)C(=O)N[C@@H](CCCN=C(N)N)C(=O)O)[C@@H](C)O)C(C)C)C(C)C [LAREYKKIVEKLKRWLRQVLRTLR]
MIC [6]: 5.17 µM (≈ 16 µg/mL) | MIC [7]: 2.58 µM (≈ 8 µg/mL) | MIC (Pseudomonas aeruginosa 5): 5.17 µM (≈ 16 µg/mL) | MIC [8]: 2.58 µM (≈ 8 µg/mL) | MIC [9]: 1.29 µM (≈ 4 µg/mL) | MIC [10]: 10.3 µM (≈ 32 µg/mL) | MIC (Pseudomonas aeruginosa 1): 2.58 µM (≈ 8 µg/mL)
